From US9745348B2 (The University of Manchester, priority 2011, dated 2017)
Where no end group is shown, it is not given here.

How the values were obtained:
[1] = MTT viability of fibroblasts over three days; assay type: cell-based, human; conditions: human, adult fibroblasts (HDFa cells)
Experimental: (§1) MTT assay: Cell viability and proliferation is widely assessed by the MTT assay as already described previously.
(§2) The fibroblasts cells, Neonatal (HDFn) and Adult (HDFa), were both grown until greater than 80% confluent. […] After 24 hour incubation the culture medium was replaced with fresh medium containing an appropriate amount of the peptide for investigation.
(§3) The viability of the fibroblasts, Adult (HDFa) and Neonatal (HDFn) cells in the presence of surfactants was tested by MTT assay over three days relative to control wells containing cells only.

in vitro = assay type: cell-based; conditions: human, neonatal fibroblasts (HDFn cells)
Experimental: as §1
The fibroblasts cells, Neonatal (HDFn) and Adult (HDFa), were both grown until greater than 80% confluent. The cells were then harvested and seeded into micro well plate at cell densities of 5000 cells/well in a volume […] of medium. After 24 hour incubation the culture medium was replaced with fresh medium containing an appropriate amount of the peptide for investigation.

[2] = test system: HeLa and HL60 cancer cell lines; conditions: 24 h
Experimental: Antitumor activities of peptides were measured using the 3-(4,5-dimethylthiazol-2-yl)-2,-diphenyl tetrazolium bromide (MTT) assay, and the IC50 value was calculated as the concentration of peptide that induced 50% growth inhibition compared to the untreated control.
HeLa and HL60 cells were seeded in 96-well plates (10^5 cells/well) in a complete medium [Iscove's modified dulbecco's medium (IMDM)] with 10% fetal bovine serum (FBS) for 24 h before peptide treatment. […] Following incubation with peptides, 20 μL of a 5 mg/ml solution MTT reagent was added to each well and incubated for 4 h at 37° C. After removing the supernatant, 150 μL of dimethyl sulfoxide (DMSO) was added to dissolve the formazan crystals that remained in the wells. The absorbance was determined using a microplate ELISA Reader at 570 nm. Wells without cells for blanking the spectrophotometer and the cells without peptides were taken as negative controls.

[3] = test system: fibroblasts Adult (HDFa) cells; test: MTT viability of fibroblasts over three days; assay type: cell-based, human
Experimental: as §1, §2, §3

Row | Substance | viability at 24 h, 5 µM [1] [%] | viability at 24 h, 25 µM [1] [%] | viability at 24 h, 50 µM [1] [%] | viability at 24 h, 100 µM [1] [%] | viability at 48 h, 5 µM [1] [%] | viability at 48 h, 25 µM [1] [%] | viability at 48 h, 50 µM [1] [%] | viability at 48 h, 100 µM [1] [%] | viability at 72 h, 5 µM [1] [%] | viability at 72 h, 25 µM [1] [%] | viability at 72 h, 50 µM [1] [%] | viability at 72 h, 100 µM [1] [%] | viability at 24 h, 5 µM (in vitro) [%] | viability at 24 h, 25 µM (in vitro) [%] | viability at 24 h, 50 µM (in vitro) [%] | viability at 24 h, 100 µM (in vitro) [%] | viability at 48 h, 5 µM (in vitro) [%] | viability at 48 h, 25 µM (in vitro) [%] | viability at 48 h, 50 µM (in vitro) [%] | viability at 48 h, 100 µM (in vitro) [%] | further results
1 | GIIKKIIKKI-NH2 [Helix G2, G(IIKK)2 I-NH2] | 101 | 98 | 92 | 91 | 96 | 90 | 90 | 88 | 95 | 88 | 79 | 80 | – | – | – | – | – | – | – | – | –
2 | GIKKKIIKKIIKII-NH2 [GIK, GIK(KKII)2 KII-NH2] | 97 | 92 | 87 | 85 | 95 | 93 | 78 | 74 | 91 | 90 | 73 | 65 | 93 | 98 | 92 | 85 | 87 | 84 | 81 | 78 | viability at 72 h, 5 µM (in vitro): 83%; viability at 72 h, 25 µM (in vitro): 78%; viability at 72 h, 50 µM (in vitro): 75%; viability at 72 h, 100 µM (in vitro): 71%
3 | GKIKKIIKKIIKII-NH2 [GKI, GKI(KKII)2 KII-NH2] | 95 | 93 | 90 | 85 | 82 | 81 | 80 | 75 | 81 | 75 | 71 | 70 | 95 | 87 | 81 | 69 | 90 | 83 | 75 | 60 | viability at 72 h, 5 µM (in vitro): 88%; viability at 72 h, 25 µM (in vitro): 78%; viability at 72 h, 50 µM (in vitro): 71%; viability at 72 h, 100 µM (in vitro): 55%; IC50 [2]: 4 to 25 µM
4 | GLLKKLLKKLLKKL-NH2 [GL, G(LLKK)3 L-NH2] | 91 | 90 | 87 | 63 | 90 | 88 | 75 | 57 | 87 | 74 | 46 | 11 | 98 | 88 | 85 | 80 | 87 | 84 | 74 | 65 | viability at 72 h, 5 µM (in vitro): 83%; viability at 72 h, 25 µM (in vitro): 81%; viability at 72 h, 50 µM (in vitro): 67%; viability at 72 h, 100 µM (in vitro): 35%
5 | cocamide ethanolamines [CMEA] | – | – | – | – | – | – | – | – | – | – | – | – | – | – | – | – | – | – | – | – | MTT results (relative MTT reading) [3]: 0.00
